In patent US7297705B2, “Azaindolylalkylamine derivatives as 5-hydroxytryptamine-6 ligands” (Wyeth, priority 2001, dated 2007) one finds Ki data, which are given here for 69 compounds.

By Ki is commonly meant a measure of affinity in units of concentration, obtained from inhibition or displacement.

The target in one test is T1, human cloned 5-HT6 receptors (Homo sapiens, UniProt P50406).
T1 construct: expressed in transfected cells; host or cells: Hela cells
T1 sequence (P50406 whole entry): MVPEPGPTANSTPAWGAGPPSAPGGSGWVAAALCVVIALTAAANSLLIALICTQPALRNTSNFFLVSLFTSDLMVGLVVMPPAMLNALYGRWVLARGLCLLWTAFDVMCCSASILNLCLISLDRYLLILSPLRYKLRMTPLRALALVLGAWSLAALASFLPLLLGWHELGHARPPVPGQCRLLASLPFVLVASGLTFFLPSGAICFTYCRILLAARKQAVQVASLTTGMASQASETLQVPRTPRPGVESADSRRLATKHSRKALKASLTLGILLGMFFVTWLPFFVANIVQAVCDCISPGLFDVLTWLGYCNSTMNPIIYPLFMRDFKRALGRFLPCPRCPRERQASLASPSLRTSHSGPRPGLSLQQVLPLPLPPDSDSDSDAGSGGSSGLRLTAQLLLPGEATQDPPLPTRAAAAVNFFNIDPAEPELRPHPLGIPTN
Briefly: 5-HT6 binding affinity, [3H]-LSD displacement on membranes of Hela cells expressing human cloned 5-HT6 receptors.
Details: not given
How it is done:
Comparative Evaluation of 5-HT6 Binding Affinity of Test Compounds
The affinity of test compounds for the serotonin 5-HT6 receptor is evaluated in the following manner. Cultured Hela cells expressing human cloned 5-HT6 receptors are harvested and centrifuged at low speed (1,000×g) for 10.0 min to remove the culture media. The harvested cells are suspended in half volume of fresh physiological phosphate buffered saline solution and recentrifuged at the same speed. This operation is repeated. The collected cells are then homogenized in ten volumes of 50 mM Tris.HCl (pH 7.4) and 0.5 mM EDTA. The homogenate is centrifuged at 40,000×g for 30.0 min and the precipitate is collected. The obtained pellet is resuspended in 10 volumes of Tris.HCl buffer and recentrifuged at the same speed. The final pellet is suspended in a small volume of Tris.HCl buffer and the tissue protein content is determined in aliquots of 10-25 μl volumes. Bovine Serum Albumin is used as the standard in the protein determination according to the method described in Lowry et al., J. Biol. Chem., 193:265 (1951). The volume of the suspended cell membranes is adjusted to give a tissue protein concentration of 1.0 mg/ml of suspension. The prepared membrane suspension (10 times concentrated) is aliquoted in 1.0 ml volumes and stored at −70° C. until used in subsequent binding experiments.
The reaction is allowed to proceed in the dark for 120 min at room temperature, at which time, the bound ligand-receptor complex is filtered off on a 96 well unifilter with a Packard Filtermate® 196 Harvester. The bound complex caught on the filter disk is allowed to air dry and the radioactivity is measured in a Packard TopCount® equipped with six photomultiplier detectors, after the addition of 40.0 μl Microscint®-20 scintillant to each shallow well. The unifilter plate is heat-sealed and counted in a PackardTopCount® with a tritium efficiency of 31.0%.
Binding in the presence of varying concentrations of test compound is expressed as a percentage of specific binding in the absence of test compound. The results are plotted as log % bound versus log concentration of test compound. […] A linear regression line of data points is plotted, from which the IC50 value is determined and the Ki value is determined based upon the following equation: Ki=IC50/(1+L/KD) where L is the concentration of the radioactive ligand used and KD is the dissociation constant of the ligand for the receptor, both expressed in nM.
For the compound `NCCc1cn(S(=O)(=O)c2c(Cl)nc3sccn23)c2cccnc12` [Example 11], affinity was put at a Ki of 0.8 nM.
Still for that read-out and setting: the same measure for `NCCc1cn(S(=O)(=O)c2cccc(C(F)(F)F)c2)c2cccnc12` [Example 13]: 5 nM; for `NCCc1cn(S(=O)(=O)c2ccc(C(F)(F)F)cc2Cl)c2cccnc12` [Example 14]: 15 nM; for `NCCc1cn(S(=O)(=O)c2ccc(F)c(F)c2)c2cccnc12` [Example 15]: 16 nM.
Regarding `COc1cccc(S(=O)(=O)n2cc(CCN)c3ncccc32)c1` [Example 17], affinity was put at a Ki of 2.9 nM.
On the same count and under the same terms, next, `NCCc1cn(S(=O)(=O)c2cnc3sccn23)c2cccnc12` [Example 18]: 1.6 nM.
The same measure, in the same setting: the same measure for `NCCc1cn(S(=O)(=O)c2cccc(F)c2)c2cccnc12` [Example 20]: 3.3 nM; for `Cc1cccc(S(=O)(=O)n2cc(CCN)c3ncccc32)c1` [Example 22]: 2.4 nM.
Compound `NCCc1cn(S(=O)(=O)c2cccc(Cl)c2Cl)c2cccnc12` [Example 23] came in with a Ki of 2.1 nM.
Still for that read-out and setting: the same measure for `NCCc1cn(S(=O)(=O)c2ccccc2F)c2cccnc12` [Example 24]: 5.3 nM; for `NCCc1cn(S(=O)(=O)c2c(Cl)nc3sc(Cl)cn23)c2cccnc12` [Example 26]: 7.3 nM.
The same measure, in the same setting: the same measure for `NCCc1cn(S(=O)(=O)c2c(Cl)nc3sccn23)c2ccncc12` [Example 35, 2-{[1-(6-Chloroimidazo[2,1-b]thiazol-5-yl)sulfonyl]-1H-pyrrolo[3,2-c]pyridin-3-yl)ethylamine]: 15.7 nM.
Same read-out and setting: next, `NCCc1cn(S(=O)(=O)c2cnc3sccn23)c2ccncc12` [Example 39]: 47 nM.
The compound `NCCc1cn(S(=O)(=O)c2ccc(Cl)s2)c2ccncc12` [Example 43] registered a Ki of 47.5 nM.
Same read-out and setting: the same measure for `NCCc1cn(S(=O)(=O)c2cccc(Cl)c2Cl)c2ccncc12` [Example 47]: 32.7 nM.
Still for that read-out and setting: next, `COc1cccc(S(=O)(=O)n2cc(CCN)c3cccnc32)c1` [Example 68, 2-[1-(3-Methoxybenzenesulfonyl)-1H-pyrrolo[2,3-b]pyridin-3-yl]ethylamine]: 33.3 nM.
The same measure, in the same setting: the same measure for `NCCc1cn(S(=O)(=O)c2ccc3ccccc3c2)c2ncccc12` [Example 82]: 12 nM; for `NCCc1cn(S(=O)(=O)c2ccc(N)cc2)c2ncccc12` [Example 83]: 2.4 nM; for `COc1ccc(S(=O)(=O)n2cc(CCN)c3cccnc32)cc1` [Example 84]: 74.6 nM.
For the compound `N#Cc1ccccc1S(=O)(=O)n1cc(CCN)c2cccnc21` [Example 87], the Ki is 79 nM.
Same read-out and setting: next, `NCCc1cn(S(=O)(=O)c2ccccc2C(F)(F)F)c2ncccc12` [Example 89]: 38.3 nM.
Consider `NCCc1cn(S(=O)(=O)c2cccc(C(F)(F)F)c2)c2ncccc12` [Example 90], for which the Ki stood at 21 nM.
The same measure, in the same setting: next, `CC(C)c1ccc(S(=O)(=O)n2cc(CCN)c3cccnc32)cc1` [Example 93]: 39.3 nM; `CN(C)CCc1cn(S(=O)(=O)c2ccccc2)c2ncccc12` [Example 94]: 40 nM; `COc1cccc(S(=O)(=O)n2cc(CCN(C)C)c3cccnc32)c1` [Example 97]: 24.6 nM.
Still for that read-out and setting: next, `COc1ccc(S(=O)(=O)n2cc(CCN(C)C)c3cccnc32)cc1OC` [Example 99]: 76.6 nM; `CN(C)CCc1cn(S(=O)(=O)c2ccccc2C(F)(F)F)c2ncccc12` [Example 103]: 38 nM; `CN(C)CCc1cn(S(=O)(=O)c2cccc(C(F)(F)F)c2)c2ncccc12` [Example 104]: 29.3 nM.
Same read-out and setting: the same measure for `Cc1ccc(C)c(S(=O)(=O)n2cc(CCN)c3cccnc32)c1` [Example 108]: 23.7 nM.
Compound `NCCc1cn(S(=O)(=O)c2ccc(F)c(Cl)c2)c2ncccc12` [Example 109] gave a Ki of 61.3 nM.
Consider `NCCc1cn(S(=O)(=O)c2ccc(F)cc2Cl)c2ncccc12` [Example 110], for which affinity was put at a Ki of 38.3 nM.
`Cc1ccc(S(=O)(=O)n2cc(CCN)c3cccnc32)cc1Cl` [Example 111] registered a Ki of 3.6 nM.
The same measure, in the same setting: next, `Cc1ccc(F)cc1S(=O)(=O)n1cc(CCN)c2cccnc21` [Example 112]: 38.7 nM.
Same read-out and setting: the same measure for `Cc1cc(S(=O)(=O)n2cc(CCN)c3cccnc32)c(C)cc1Cl` [Example 114]: 17.7 nM; for `NCCc1cn(S(=O)(=O)c2cccc(F)c2)c2ncccc12` [Example 116]: 13.4 nM; for `NCCc1cn(S(=O)(=O)c2ccc(F)c(F)c2)c2ncccc12` [Example 118]: 89.3 nM.
The same measure, in the same setting: the same measure for `NCCc1cn(S(=O)(=O)c2ccccc2Cl)c2ncccc12` [Example 120]: 27 nM; for `NCCc1cn(S(=O)(=O)c2cccc(Cl)c2)c2ncccc12` [Example 121]: 6 nM.
`NCCc1cn(S(=O)(=O)c2ccc(Cl)cc2)c2ncccc12` [Example 122] returned a Ki of 50 nM.
On to `NCCc1cn(S(=O)(=O)c2ccc(Cl)s2)c2ncccc12` [Example 129], for which the affinity, expressed as Ki, was 11.7 nM.
`NCCc1cn(S(=O)(=O)c2ccc(Br)s2)c2ncccc12` [Example 130]: the Ki amounted to 8.5 nM.
The same measure, in the same setting: the same measure for `NCCc1cn(S(=O)(=O)c2cc(Cl)c(Cl)s2)c2ncccc12` [Example 131]: 19.7 nM; for `NCCc1cn(S(=O)(=O)c2cc(Br)c(Br)s2)c2ncccc12` [Example 133]: 10.7 nM; for `NCCc1cn(S(=O)(=O)c2sc(Cl)cc2Br)c2ncccc12` [Example 134]: 29 nM.
Compound `CN(C)CCc1cn(S(=O)(=O)c2ccc(F)cc2Cl)c2ncccc12` [Example 144] had a Ki of 56.3 nM.

Staying with this test, now noted: [3H]-LSD 3.0 nM, 120 min at room temperature, Ki=IC50/(1+L/KD); read-out: 5-HT6 Binding Ki.
With `NCCc1cn(S(=O)(=O)c2ccccc2Cl)c2cccnc12` [Example 1, 2-[1-(2-Clorobenzensulfonyl)-1H-pyrrolo[3,2-b]pyridin-3-yl]ethylamine], the inhibitory constant (Ki) was determined as 5 nM.

Still in this test, the particulars now being: read-out: 5-HT6 Binding Ki.
`NCCc1cn(S(=O)(=O)c2ccc(Cl)s2)c2cccnc12` [Example 5]: the Ki was 2 nM.
`NCCc1cn(S(=O)(=O)c2cccc(Cl)c2)c2cccnc12` [Example 16]: the Ki was determined as 1.6 nM.
Turning to `NCCc1cn(S(=O)(=O)c2ccccc2)c2cccnc12` [Example 19], the Ki was 4.5 nM.
The same measure, in the same setting: next, `NCCc1cn(S(=O)(=O)c2cccc(Br)c2)c2cccnc12` [Example 25]: 3.5 nM; `NCCc1cn(S(=O)(=O)c2cccc(Cl)c2)c2ccncc12` [Example 40]: 110 nM.
Same read-out and setting: next, `NCCc1cn(S(=O)(=O)c2cccc(F)c2)c2ccncc12` [Example 41]: 170 nM.
`COc1cccc(S(=O)(=O)n2cc(CCN)c3cnccc32)c1` [Example 42]: the Ki worked out at 198 nM.
Same read-out and setting: next, `NCCc1cn(S(=O)(=O)c2ccccc2)c2ccncc12` [Example 44]: 164 nM; `Cc1cccc(S(=O)(=O)n2cc(CCN)c3cnccc32)c1` [Example 45]: 152 nM.
On the same count and under the same terms, the same measure for `NCCc1cn(S(=O)(=O)c2cccc(C(F)(F)F)c2)c2ccncc12` [Example 46]: 173 nM; for `NCCc1cn(S(=O)(=O)c2ccc(F)cc2F)c2ncccc12` [Example 71]: 113 nM; for `NCCc1cn(S(=O)(=O)c2ccccc2)c2ncccc12` [Example 80]: 43 nM.
Turning to `COc1ccc(S(=O)(=O)n2cc(CCN)c3cccnc32)cc1OC` [Example 85], the Ki was found to be 106 nM.
Same read-out and setting: next, `CC(C)(C)c1ccc(S(=O)(=O)n2cc(CCN)c3cccnc32)cc1` [Example 91]: 114 nM.
The same measure, in the same setting: next, `CN(C)CCc1cn(S(=O)(=O)c2ccc3ccccc3c2)c2ncccc12` [Example 96]: 19.6 nM; `COc1ccc(Cl)cc1S(=O)(=O)n1cc(CCN)c2cccnc21` [Example 113]: 186 nM.
Same read-out and setting: next, `NCCc1cn(S(=O)(=O)c2ccccc2F)c2ncccc12` [Example 115]: 39.3 nM.
As to `NCCc1cn(S(=O)(=O)c2cc(Cl)sc2Cl)c2ncccc12` [Example 132], the Ki turned out to be 52 nM.
On the same count and under the same terms, the same measure for `NCCc1cn(S(=O)(=O)c2cc(Br)c(Cl)s2)c2ncccc12` [Example 135]: 16.3 nM.
Same read-out and setting: the same measure for `NCCc1cn(S(=O)(=O)c2c(Cl)sc(Cl)c2Br)c2ncccc12` [Example 136]: 40 nM; for `NCCc1cn(S(=O)(=O)c2c(Cl)nc3ccccn23)c2ncccc12` [Example 137]: 25 nM; for `NCCc1cn(S(=O)(=O)c2cccc3nonc23)c2ncccc12` [Example 141]: 42.3 nM.
Turning to `NCCc1cn(S(=O)(=O)c2cccc3nsnc23)c2ncccc12` [Example 142], the Ki was determined as 69.7 nM.
